Reference: US20200038420A1, “AMINOSTEROL COMPOSITIONS AND METHODS OF USING THE SAME FOR TREATING DEPRESSION” (Enterin, Inc., priority 2018, published 2020)
Entries after “also recorded” stand apart in the source; their conditions may differ. Counter-ions that a name gives are not always drawn. Like-named read-outs stand apart in the source and are kept apart here.

What was measured:
[1] = test system: patients with PD and constipation; assay: Adverse events, Phase 2 trial Stage 1 (single escalating oral doses); format: in vivo, human; details: Stage 1 (10 dosed), single escalating oral doses 25-200 mg
Text: (§1) Tolerability limits included diarrhea or vomiting.

[2] = test system: patients with PD and constipation; assay: Adverse events, Phase 2 trial Stage 2 (daily oral dosing); format: in vivo, human; details: Stage 2 (34 dosed), daily oral doses 75-250 mg
Description: (§2) In Stage 2, 34 patients were evaluated.

[3] = test system: patients with PD and constipation; assay: Prokinetic response (CSBM within 24 hours of dosing), Stage 1; format: in vivo, human; details: Stage 1 (single dose)
Text: as §1

[4] = test system: patients with PD and constipation; assay: Bowel function / stool related indices, Stage 2; format: in vivo, human; details: Stage 2 (daily dosing), at 75 mg
Description: Following successful screening, all subjects underwent a 14-day run-in period where the degree of constipation was assessed through a validated daily log (Zinsmeister et al. 2013) establishing baseline CSBMs/week. Subjects with an average of <3 CSBMs/week proceeded to dosing.
as §2
The primary efficacy outcome variable was whether or not a subject was a “success” or “failure”. This is an endpoint based on subject diary entries for the “fixed dose” period prior to the endpoint assessment defined as average complete stool frequency increase by 1 or more over baseline, or 3 or more complete spontaneous stools/week. The subject was deemed a “success” if s/he met one or more of the criteria listed above, otherwise the subject was deemed a “failure”. The primary analysis was based on all subjects with a baseline assessment and an assessment at the end of the “fixed-dose” period and was a comparison of the proportion of successes with 0.10 (the null hypothesis corresponding to no treatment effect).

[5] = test system: patients with PD and constipation; assay: CNS / neurological symptoms, Stage 2 (UPDRS, MMSE, PDHQ, BDI-II); format: in vivo, human
Text: Exploratory end-points, in addition to constipation, included for example, (i) depression assessed using the Beck Depression Inventory (BDI-II) (Steer et al. 2000) and Unified Parkinson's Disease Rating Scale (UPDRS); (ii) cognition assessed using the Mini Mental State Examination (MMSE) (Palsteia et al. 2018), Unified Parkinson's Disease Rating Scale (UPDRS), and Trail Making Test (TMT); (iii) sleep and REM-behavior disorder (RBD) using a daily sleep diary, I-Button Temperature Assessment, a REM sleep behavior disorder (RBD) questionnaire (RBDQ) (Stiasny-Kolster et al. 2007), and the UPDRS; (iv) hallucinations assessed using the PD hallucinations questionnaire (PDHQ) (Papapetropoulos et al. 2008), the UPDRS, and direct questioning; (v) fatigue using the Parkinson's Disease Fatigue Scale (PFS-16) and the UPDRS; (vi) motor functions using the UPDRS; and (vii) non-motor functions using the UPDRS.
(§3) Assessments were made at baseline and at the end of the fixed dose and washout periods. Circadian system status was evaluated by continuously monitoring wrist skin temperature (Thermochron iButton DS1921H; Maxim, Dallas) following published procedures (Sarabia et al. 2008).
An exploratory analysis was done with respect to the sleep data, the body temperature data, mood, fatigue, hallucinations, cognition and other motor and non-motor symptoms of PD. […]

[6] = test system: patients with PD and constipation; assay: Circadian rhythm of wrist skin temperature; format: in vivo, human; details: 12 patients
Description: (6) I-Button Temperature Assessment. The I-Button is a small, rugged self-sufficient system that measures temperature and records the results in a protected memory section. The Thermochron I-Button DS1921H (Maxim Integrated, Dallas, Tex.) was used for skin temperature measurement. I-Buttons were programmed to sample every 10 mins., and attached to a double-sided cotton sport wrist band using Velcro, with the sensor face of the I-Button placed over the inside of the wrist, on the radial artery of the dominant hand. Subjects removed and replaced the data logger when necessary (i.e., to have a bath or shower). […] From the collected data, the mesor, amplitude, acrophase (time of peak temperature), Rayleight test (an index of interdaily stability), mean waveforms are calculated.);
as §3
Circadian rhythm of skin temperature was evaluable in 12 patients (i.e., those who had recordings that extended from baseline through washout). Circadian system functionality was evaluated by continuously monitoring wrist skin temperature using a temperature sensor (Thermochron iButton DS1921H; Maxim, Dallas, Tex.) (Sarabia et al. 2008). […]

[7] = Oral bioavailability in PD patients (oral PK compared with prior IV PK); format: in vivo, human; details: this study
Description: PK data were collected on the 10 patients enrolled in Stage 1 and 10 patients enrolled in Stage 2 to determine the extent of systemic absorption. In Stage 1, PK data were obtained at each visit, pre-medication, at 1, 2, 4, 8 and 24 hours (Table 10). In Stage 2, PK was measured on days 1 and 6 of the randomization period pre-medication, at 1, 2, 4 and 8 hours (Table 11).

αS = αS (Homo sapiens, UniProt P37840); details: in vitro; cited from earlier work
C. elegans αS model = details: cited from earlier work; for Formation of αS aggregates: in vivo, C. elegans model of PD
mouse models of PD = details: cited from earlier work
[8] = test system: IPANs (intrinsic primary afferent neuron); details: perfusion through the lumen of isolated bowel segment; increased frequency of propulsive peristaltic contractions; cited from earlier work
[9] = mice; into the duodenum through the biliary tract; cited from earlier work
[10] = cited from earlier work

Structure (SMILES): CC(C)[C@@H](CC[C@@H](C)[C@H]1CC[C@H]2[C@@H]3[C@H](O)C[C@H]4C[C@@H](NCCCNCCCCN)CC[C@]4(C)[C@H]3CC[C@]12C)OS(=O)(=O)O (single isomer, unassigned) [squalamine (ENT-01), squalamine]
- Abdominal pain, Mild [1]: 2(20) n, %
- Abdominal pain, Moderate [1]: 3(30) n, %
- Diarrhea, Mild [1]: 1(10) n, %
- Diarrhea, Moderate [1]: 3(30) n, %
- Diarrhea, Severe [1]: 0 n, %
- Difficulty falling asleep, Mild [1]: 0 n, %
- Difficulty falling asleep, Moderate [1]: 0 n, %
- Dizziness, Mild [1]: 0 n, %
- Dizziness, Moderate [1]: 0 n, %
- Eye infection, Mild [1]: 0 n, %
- Eye infection, Moderate [1]: 0 n, %
- Flatulence, Mild [1]: 2(20) n, %
- Flatulence, Moderate [1]: 0 n, %
- Headache, Mild [1]: 1(10) n, %
- Headache, Moderate [1]: 0 n, %
- Increased urinary frequency, Mild [1]: 0 n, %
- Increased urinary frequency, Moderate [1]: 0 n, %
- Nausea, Mild [1]: 4(40) n, %
- Nausea, Moderate [1]: 0 n, %
- Skin lesions-rash, Mild [1]: 0 n, %
- Skin lesions-rash, Moderate [1]: 0 n, %
- Urinary retention, Mild [1]: 0 n, %
- Urinary retention, Moderate [1]: 0 n, %
- Urinary tract infection, Mild [1]: 0 n, %
- Urinary tract infection, Moderate [1]: 0 n, %
- Vomiting, Mild [1]: 1(10) n, %
- Vomiting, Moderate [1]: 0 n, %
- Worsening acid reflux, Mild [1]: 0 n, %
- Worsening acid reflux, Moderate [1]: 0 n, %
- Worsening hemorrhoid, Mild [1]: 0 n, %
- Worsening hemorrhoid, Moderate [1]: 0 n, %
- Blood in urine, Mild ([1]; unrelated to ENT-01): 1(10) n, %
- Blood in urine, Moderate ([1]; unrelated to ENT-01): 0 n, %
- Loss of appetite, Mild ([1]; unrelated to ENT-01): 1(10) n, %
- Loss of appetite, Moderate ([1]; unrelated to ENT-01): 0 n, %
- Lower GI bleed, Severe ([1]; unrelated to ENT-01): 0 n, %
- Diarrhea, Mild [2]: 12(35)^ n, %
- Difficulty falling asleep, Mild [2]: 1(3)^ n, %
- Difficulty falling asleep, Moderate [2]: 0 n, %
- Eye infection, Mild [2]: 1(3)^ n, %
- Eye infection, Moderate [2]: 0 n, %
- Flatulence, Mild [2]: 1(3)^ n, %
- Flatulence, Moderate [2]: 0 n, %
- Headache, Moderate [2]: 0 n, %
- Increased urinary frequency, Moderate [2]: 0 n, %
- Nausea, Mild [2]: 18(52)^ n, %
- Skin lesions-rash, Moderate [2]: 0 n, %
- Urinary retention, Mild [2]: 1(3)^ n, %
- Urinary retention, Moderate [2]: 0 n, %
- Urinary tract infection, Mild [2]: 1(3)^ n, %
- Vomiting, Moderate [2]: 0 n, %
- Worsening acid reflux, Moderate [2]: 0 n, %
- Worsening hemorrhoid, Mild [2]: 1(3)^ n, %
- Worsening hemorrhoid, Moderate [2]: 0 n, %
- Blood in urine, Mild ([2]; unrelated to ENT-01): 0 n, %
- Blood in urine, Moderate ([2]; unrelated to ENT-01): 0 n, %
- Loss of appetite, Mild ([2]; unrelated to ENT-01): 0 n, %
- Loss of appetite, Moderate ([2]; unrelated to ENT-01): 0 n, %
- Cumulative prokinetic response rate ([3]; at 25 mg): 25%
- Cumulative prokinetic response rate ([3]; maximum, at 200 mg): 80%
- Prokinetic response rate [4]: 26%
- Patients in whom hallucinations and delusions improved or disappeared during treatment ([5]; Stage 2, 5 patients with hallucinations and 1 with delusions at baseline): 5 of 6
- Improvement of UPDRS Part 1 score ([5]; baseline 11.6 to wash-out 9.5): ~20%
- Circadian rhythm parameters (IS, RA, CFI, IV) ([6]; fixed dose versus baseline): improved all markers of healthy circadian function
- Circadian rhythm parameters (IS, CFI) ([6]; wash-out period): improvement persisted for several of these circadian parameters
- Systemic absorption following oral administration [7]: not significantly absorbed into the systemic circulation
- Systemic absorption following oral administration ([7]; listed as aminosterol): negligible
- Formation of αS aggregates (αS): inhibits the formation of αS aggregates
- Muscle paralysis / motor dysfunction (C. elegans αS model; C. elegans αS model): reverses motor dysfunction; also recorded: complete reversal of muscle paralysis
- Formation of αS aggregates (C. elegans αS model; listed as ENT-01): inhibit the formation of aggregates of αS
- Formation of αS aggregates (C. elegans αS model; listed as squalamine): inhibits the formation of αS aggregates
- Gastro-intestinal motility (mouse models of PD; oral, mice with constipation due to overexpression of human αS): stimulates gastro-intestinal motility
- Gastrointestinal motility / dysmotility (mouse models of PD; several mouse models of PD): restores gastrointestinal motility; also recorded: reverse gastrointestinal dysmotility
- Effect on enteric sensory neurons [8]: excitation of IPANs
- Clearance and excretion following systemic administration [9]: cleared by the liver and excreted as the intact molecule
- Gastrointestinal motility after intravenous administration ([10]; intravenous, prior studies): not associated with increased gastrointestinal motility
- Systemic blood levels, intravenous versus orally administered squalamine ([10]; prior studies): one thousand-fold greater

Structure (SMILES): CC(C)[C@@H](CC[C@@H](C)[C@H]1CC[C@H]2[C@@H]3[C@H](O)C[C@H]4C[C@@H](NCCCNCCCCN)CC[C@]4(C)[C@H]3CC[C@]12C)OS(=O)(=O)O [Squalamine dilactate salt]
- Well tolerated dose, single and repeat intravenous administration ([10]; intravenous, alone or in combination with other agents, Phase 1 and Phase 2 trials): at least 300 mg/m^2
